The text below walks through data of patent publication US7683065B2, “Pyridines useful as modulators of ion channels” (Vertex Pharmaceuticals Incorporated, priority 2005, dated 2010).

Read-outs that look alike come from different tables or passages of the source.

One experiment deals with neuropathic pain. As to conditions: in vivo; cited from earlier work.
In experiment [1] the target is T1, NaV1.8 (Homo sapiens, UniProt Q9Y5Y9). Briefly: Activity against NaV 1.8 channel (NaV inhibition assays, Table 4). The class given is cell-based. The procedure:
Compounds of the invention are useful as antagonists of voltage-gated sodium ion channels. Antagonist properties of test compounds were assessed as follows. Cells expressing the NaV of interest were placed into microtiter plates. After an incubation period, the cells were stained with fluorescent dyes sensitive to the transmembrane potential. The test compounds were added to the microtiter plate. The cells were stimulated with either a chemical or electrical means to evoke a NaV dependent membrane potential change from unblocked channels, which was detected and measured with trans-membrane potential-sensitive dyes. Antagonists were detected as a decreased membrane potential response to the stimulus. The optical membrane potential assay utilized voltage-sensitive FRET sensors described by Gonzalez and Tsien (See Gonzalez, J. E. and R. Y. Tsien (1995) “Voltage sensing by fluorescence resonance energy transfer in single cells” Biophys J 69(4): 1272-80, and Gonzalez, J. E. and R. Y. Tsien (1997) “Improved indicators of cell membrane potential that use fluorescence resonance energy transfer” Chem Biol 4(4): 269-77) in combination with instrumentation for measuring fluorescence changes such as the Voltage/Ion Probe Reader (VIPR®) (See, Gonzalez, J. E., K. Oades, et al. (1999) “Cell-based assays and instrumentation for screening ion-channel targets” Drug Discov Today 4(9): 431439).
24 hours before the assay on VIPR, CHO cells endogenously expressing a NaV1.2 type voltage-gated NaV are seeded in 96-well poly-lysine coated plates at 60,000 cells per well. Other subtypes are performed in an analogous mode in a cell line expressing the NaV of interest. • 1) On the day of the assay, medium is aspirated and cells are washed twice with 225 μL of Bath Solution #2 (BS#2). • 2) A 15 uM CC2-DMPE solution is prepared by mixing 5 mM coumarin stock solution with 10% Pluronic 127 1:1 and then dissolving the mix in the appropriate volume of BS#2. • 3) After bath solution is removed from the 96-well plates, the cells are loaded with 80 μL of the CC2-DMPE solution. Plates are incubated in the dark for 30 minutes at room temperature. • 4) While the cells are being stained with coumarin, a […] oxonol solution in BS#2 is prepared. In addition to DiSBAC2(3), this solution should contain 0.75 mM ABSC1 and […] veratridine (prepared from 10 mM EtOH stock, Sigma #V-5754). • 5) After 30 minutes, CC2-DMPE is removed and the cells are washed twice with 225 μL of BS#2. […] The cells are then incubated for 20-30 minutes. • 7) Once the incubation is complete, the cells are ready to be assayed on VIPR® with a sodium addback protocol. […]
The following is an example of how NaV1.3 inhibition activity is measured using the optical membrane potential method#2. […]

The target in a further experiment is NaV1.3 (Homo sapiens, UniProt Q9NY46). The settings on record: read-out: TTX IC50; cited from earlier work.
NaV1.3, sequence (Q9NY46 whole entry, looked up): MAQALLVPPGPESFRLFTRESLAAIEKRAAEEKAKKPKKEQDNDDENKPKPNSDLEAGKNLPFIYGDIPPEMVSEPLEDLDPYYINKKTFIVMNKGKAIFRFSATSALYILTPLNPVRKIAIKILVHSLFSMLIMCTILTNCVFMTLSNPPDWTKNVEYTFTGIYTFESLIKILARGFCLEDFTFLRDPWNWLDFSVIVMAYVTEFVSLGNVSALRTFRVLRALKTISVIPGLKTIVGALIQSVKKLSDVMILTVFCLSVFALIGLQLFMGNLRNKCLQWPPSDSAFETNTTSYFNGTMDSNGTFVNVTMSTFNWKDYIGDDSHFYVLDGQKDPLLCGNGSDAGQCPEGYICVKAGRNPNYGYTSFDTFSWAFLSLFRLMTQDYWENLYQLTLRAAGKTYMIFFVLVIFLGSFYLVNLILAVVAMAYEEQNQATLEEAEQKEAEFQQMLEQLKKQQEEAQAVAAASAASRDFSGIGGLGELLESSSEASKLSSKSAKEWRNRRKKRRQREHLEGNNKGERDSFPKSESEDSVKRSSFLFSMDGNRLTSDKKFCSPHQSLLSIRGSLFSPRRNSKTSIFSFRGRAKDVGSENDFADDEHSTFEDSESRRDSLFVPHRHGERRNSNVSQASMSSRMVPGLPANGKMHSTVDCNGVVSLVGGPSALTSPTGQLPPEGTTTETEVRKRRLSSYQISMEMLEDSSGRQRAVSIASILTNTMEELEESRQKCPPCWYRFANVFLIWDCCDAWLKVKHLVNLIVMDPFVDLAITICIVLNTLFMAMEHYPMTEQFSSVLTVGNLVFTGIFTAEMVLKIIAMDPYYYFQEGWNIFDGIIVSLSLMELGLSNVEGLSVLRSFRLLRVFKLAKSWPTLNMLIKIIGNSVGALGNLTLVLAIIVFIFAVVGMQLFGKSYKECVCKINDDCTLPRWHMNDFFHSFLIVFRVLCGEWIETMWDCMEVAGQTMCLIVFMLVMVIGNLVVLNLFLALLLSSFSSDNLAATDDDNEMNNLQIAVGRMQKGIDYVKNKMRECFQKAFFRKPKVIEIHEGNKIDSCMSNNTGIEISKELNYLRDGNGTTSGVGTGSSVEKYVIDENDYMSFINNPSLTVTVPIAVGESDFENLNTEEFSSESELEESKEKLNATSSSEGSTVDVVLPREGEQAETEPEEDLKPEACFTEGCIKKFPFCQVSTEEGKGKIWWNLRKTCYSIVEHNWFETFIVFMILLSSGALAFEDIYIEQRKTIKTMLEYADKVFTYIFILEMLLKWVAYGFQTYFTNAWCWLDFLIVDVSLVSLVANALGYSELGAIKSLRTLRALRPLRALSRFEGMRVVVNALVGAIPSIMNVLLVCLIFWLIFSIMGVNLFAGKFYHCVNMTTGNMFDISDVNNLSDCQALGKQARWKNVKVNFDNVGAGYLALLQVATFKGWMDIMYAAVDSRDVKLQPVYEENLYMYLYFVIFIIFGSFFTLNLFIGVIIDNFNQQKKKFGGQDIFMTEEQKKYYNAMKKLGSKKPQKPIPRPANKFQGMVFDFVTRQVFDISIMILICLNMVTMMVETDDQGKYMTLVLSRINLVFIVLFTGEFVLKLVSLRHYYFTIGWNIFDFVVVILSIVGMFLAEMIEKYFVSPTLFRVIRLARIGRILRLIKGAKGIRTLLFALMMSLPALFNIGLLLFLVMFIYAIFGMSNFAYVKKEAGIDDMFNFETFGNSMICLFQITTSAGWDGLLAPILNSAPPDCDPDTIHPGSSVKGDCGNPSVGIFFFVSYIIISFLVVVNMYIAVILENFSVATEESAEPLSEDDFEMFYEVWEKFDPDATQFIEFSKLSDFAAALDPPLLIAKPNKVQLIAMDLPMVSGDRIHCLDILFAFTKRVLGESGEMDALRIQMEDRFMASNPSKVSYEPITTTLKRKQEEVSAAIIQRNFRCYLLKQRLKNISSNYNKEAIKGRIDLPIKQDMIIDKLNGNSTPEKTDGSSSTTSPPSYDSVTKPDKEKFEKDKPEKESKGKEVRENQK
Experiment [2] addresses T1, NaV1.8. As to conditions: read-out: TTX IC50; cited from earlier work.

T1 sequence (Q9Y5Y9 whole entry, looked up): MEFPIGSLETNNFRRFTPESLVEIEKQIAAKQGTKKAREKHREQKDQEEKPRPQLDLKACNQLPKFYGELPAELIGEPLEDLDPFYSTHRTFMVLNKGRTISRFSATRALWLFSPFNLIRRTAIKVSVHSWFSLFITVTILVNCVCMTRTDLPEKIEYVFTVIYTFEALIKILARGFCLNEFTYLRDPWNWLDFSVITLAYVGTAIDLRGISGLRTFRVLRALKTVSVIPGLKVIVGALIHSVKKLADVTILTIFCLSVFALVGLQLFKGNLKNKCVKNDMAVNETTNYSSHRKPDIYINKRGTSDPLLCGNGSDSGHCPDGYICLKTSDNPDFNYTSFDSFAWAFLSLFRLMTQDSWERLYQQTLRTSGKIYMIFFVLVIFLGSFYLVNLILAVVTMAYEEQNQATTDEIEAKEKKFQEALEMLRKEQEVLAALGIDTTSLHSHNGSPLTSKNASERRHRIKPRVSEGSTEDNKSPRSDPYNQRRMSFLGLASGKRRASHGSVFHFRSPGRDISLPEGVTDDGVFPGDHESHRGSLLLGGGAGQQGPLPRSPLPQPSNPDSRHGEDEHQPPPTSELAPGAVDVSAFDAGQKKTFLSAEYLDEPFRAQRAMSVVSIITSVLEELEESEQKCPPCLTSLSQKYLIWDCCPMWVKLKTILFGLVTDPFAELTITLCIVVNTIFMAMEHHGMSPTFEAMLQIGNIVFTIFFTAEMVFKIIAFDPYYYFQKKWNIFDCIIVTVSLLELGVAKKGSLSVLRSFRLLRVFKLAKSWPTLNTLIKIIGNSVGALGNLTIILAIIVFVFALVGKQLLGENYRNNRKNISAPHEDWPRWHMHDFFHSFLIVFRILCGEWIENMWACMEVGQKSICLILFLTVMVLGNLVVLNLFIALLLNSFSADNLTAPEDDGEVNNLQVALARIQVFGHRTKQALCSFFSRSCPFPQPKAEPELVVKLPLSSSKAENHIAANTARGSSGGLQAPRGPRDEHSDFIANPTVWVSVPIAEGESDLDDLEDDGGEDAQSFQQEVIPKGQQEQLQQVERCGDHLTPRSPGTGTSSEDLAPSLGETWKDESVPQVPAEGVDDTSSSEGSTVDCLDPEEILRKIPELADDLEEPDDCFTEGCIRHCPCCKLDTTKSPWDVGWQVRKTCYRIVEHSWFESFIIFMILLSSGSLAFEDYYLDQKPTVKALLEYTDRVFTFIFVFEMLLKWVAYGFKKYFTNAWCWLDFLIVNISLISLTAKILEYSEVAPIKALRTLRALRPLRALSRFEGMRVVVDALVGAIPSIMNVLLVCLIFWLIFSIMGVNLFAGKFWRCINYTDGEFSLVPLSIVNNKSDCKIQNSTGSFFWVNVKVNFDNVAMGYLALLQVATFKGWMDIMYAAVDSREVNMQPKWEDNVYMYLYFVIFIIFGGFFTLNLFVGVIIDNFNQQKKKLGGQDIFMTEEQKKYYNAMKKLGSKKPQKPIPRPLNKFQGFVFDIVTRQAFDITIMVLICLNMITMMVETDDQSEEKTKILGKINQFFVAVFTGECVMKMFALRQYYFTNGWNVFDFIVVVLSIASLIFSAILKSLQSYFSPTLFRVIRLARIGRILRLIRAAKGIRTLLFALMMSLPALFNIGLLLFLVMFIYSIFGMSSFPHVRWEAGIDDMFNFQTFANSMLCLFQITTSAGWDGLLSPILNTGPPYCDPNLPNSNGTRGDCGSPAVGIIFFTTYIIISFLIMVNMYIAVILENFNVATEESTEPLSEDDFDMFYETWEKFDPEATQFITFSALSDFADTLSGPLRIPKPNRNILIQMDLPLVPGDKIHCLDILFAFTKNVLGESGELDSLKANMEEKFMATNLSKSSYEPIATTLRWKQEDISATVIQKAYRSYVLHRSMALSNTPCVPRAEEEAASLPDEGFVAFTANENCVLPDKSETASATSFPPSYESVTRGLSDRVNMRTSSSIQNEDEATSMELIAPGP

Consider `NCC1(CC(=O)O)CCCCC1` [Gabapentin], for which the “share of patients in whom it works” value in the experiment on neuropathic pain is recorded as 60%. In general, IC50 refers to the point on the concentration scale where inhibition reaches its midpoint. On to `CC(C)COC(=O)N1CCN(c2ccnc(-c3ccccc3O)c2)CC1` [Compound 1, Isobutyl 4-(2-(2-hydroxyphenyl)pyridin-4-yl)piperazine-1-carboxylate], for which the half-inhibitory concentration (IC50) on NaV1.8 [1] was more than 15 µM.

In the case of `NC1=N[C@H](O)[C@H]2[C@H]3O[C@]4(O)O[C@@H]([C@@H](O)[C@@]2(N1)[C@@H]4O)[C@]3(O)CO` [TTX, tetrodotoxin], the IC50 is 0.015 µM at NaV1.3 and more than 50 µM on NaV1.8 [2].

With `CC(C)C[C@@H](O)C(=O)N1CCN(c2cccc(-c3ccccc3O)n2)CC1` [Compound 4, (R)-2-hydroxy-1-(4-(6-(2-hydroxyphenyl)pyridin-2-yl)piperazin-1-yl)-4-methylpentan-1-one], at NaV1.8 [1], the IC50 was less than 10 µM. Still for that read-out and setting: the same measure for `CC(C)COC(=O)N1CCN(c2cccc(-c3ccccc3O)n2)CC1` [Compound 3, 4-[6-(2-hydroxyphenyl)-2-pyridyl]piperazine-1-carboxylic acid isobutyl ester]: 10 to 15 µM. Consider `CC(C)COC(=O)N1CCN(c2cc(-c3ccccc3O)ccn2)CC1` [Compound 5, Isobutyl-4-[4′-(2-hydroxyphenyl)-pyridin-2′-yl]-piperazine-1-carboxylate], for which, at NaV1.8 [1], the IC50 is more than 15 µM.
